# Columns and labels:
# rat gastric emptying = experiment: Stomach weight after charcoal meal (gastric emptying); format: in vivo, male Sprague-Dawley rats; conditions: morphine sulfate 1-10 mg/kg SC 0.5 h before charcoal meal, vs vehicle; FIG. 1B
# Experimental: Morphine sulfate (1-10 mg/kg) or 0.9% normal saline (vehicle) was administered SC to the test subjects. 0.5 hour later, a charcoal meal (1 ml/100 grams) was administered PO to the test subjects. One hour after the charcoal meal, the test subjects were euthanized by CO2 and the stomachs were removed and weighed. Data were analyzed using a one-way ANOVA followed by the Dunnett's Multiple Comparisons test where *P<0.05, **P<0.01 and ***P<0.001. […] This effect was dose dependent with a greater magnitude of effect observed with increasing dose.
# [1] = tested on: acute thermal pain in the rat; experiment: Rat hot plate assay (response latency, % MPE)
# Experimental: Morphine sulphate (1-10 mg/kg) was dissolved in 0.9% normal saline solution (NSS)(vehicle) and administered SC 1 hour prior to testing against vehicle. Data were analyzed by a two-way ANOVA using a Bonferroni Multiple Comparison Test,***P<0.001.
# Morphine sulphate (1-10 mg/kg) was dissolved in 0.9% normal saline solution (NSS)(vehicle) and administered SC 1 hour prior to testing against vehicle. % MPE=Percent Maximum Possible Effect. % MPE=(test latency-baseline)/(cutoff-baseline). Data was analyzed using a Bonferroni Multiple Comparison Test,***P<0.001.
# Morphine sulphate (10 mg/kg), the positive control, was dissolved in 0.9% NSS (vehicle). The formulations were administered SC 1 hour prior to testing against vehicle. Data were analyzed by a two-way ANOVA using a Bonferroni multiple comparisons test, where *P<0.05 and ***P <0.001. Data are represented as the means+S.E.M.
# Morphine sulphate (10 mg/kg) was dissolved in 0.9% NSS (vehicle). The formulations were administered SC 1 hour prior to testing against vehicle. % MPE=Percent Maximum Possible Effect. % MPE=(test latency-baseline)/(cutoff (30 s)-baseline). Data were analyzed by a two-way ANOVA using Bonferroni Multiple Comparisons test for post-hoc analysis, where *P<0.05 and ***P<0.001. Data are represented as the means+SEM.
# The positive control, morphine sulfate in 0.9% NS, was administered SC 1 hour prior to testing. Rats were assessed one day prior (BL) and then 1, 3 and 5 hours post-dosing. Hot Plate was set to 52° C. and cutoff was 30 seconds. Data were analyzed by a two-way ANOVA using a Bonferroni Multiple Comparisons Test, where *P<0.05, ***P<0.001 and ****P<0.0001 versus vehicle. Data are represented as the means+S.E.M from two combined studies.
# Oxycodone hydrochloride (0.3-5 mg/kg) was dissolved in 0.9% normal saline solution (NSS)(vehicle) and administered SC 1 hour prior to testing against vehicle. Hot plate was set to 52° C. and cutoff was 30 seconds. Data were analyzed by a two-way ANOVA using a Bonferroni multiple comparisons test, where ****P<0.0001. Data are represented as the means+S.E.M.
# Compound was administered SC 1 hour prior to testing. Oxycodone hydrochloride (0.3-5 mg/kg) was dissolved in 0.9% normal saline solution (NSS)(vehicle) and administered SC 1 hour prior to testing against vehicle. Hot plate was set to 52° C. and cutoff was 30 seconds. % MPE=. Percent Maximum Possible Effect. % MPE=(test latency-baseline)/(cutoff (30 s)-baseline). Data were analyzed by a two-way ANOVA using Bonferroni Multiple Comparisons test for post-hoc analysis, ****P<0.000. Data are represented as the means+SEM.
# Oxycodone HCl was administered SC 1 hour prior to testing. Thermal latency was assessed the day prior (BL) and then 1, 3 and 5 hours post-oxycodone dosing. The hotplate was set to 52° C. and the cutoff was 30 seconds. Oxycodone was dissolved in 0.9% NS (vehicle). […] Data were analyzed by a two-way ANOVA using the Bonferroni Multiple Comparisons test for post-hoc analysis where, ***P<0.001. Data are represented as the means+SEM.
# Oxycodone HCl was administered PO 1 hour prior to testing, while morphine sulfate, the positive control, was administered SC 1 hour prior to testing. Behavior was assessed the day prior (BL) and then 1, 3, 5 and 24 hours post-compound administration. The hot plate was set to 52° C. and the cutoff was 30 seconds. Oxycodone was dissolved in water (vehicle), while morphine sulfate was dissolved in 0.9% NS. Data were analyzed by a two-way ANOVA using a Bonferroni Multiple Comparisons Test, where ****P<0.0001.
# Rats were assessed for thermal latency the day prior to dosing, then 1.5, 3 and 5 hours post-morphine administration. Data were analyzed by a two-way ANOVA using the Bonferroni Multiple Comparisons Test, where ****P<0.0001 compared to vehicle+vehicle.
# rat GI transit = experiment: Charcoal meal GI transit in the rat, single agent; conditions: for GI transit: % of the small intestine travelled by a charcoal meal: vs vehicle
# Experimental: Rats were dosed with Oxycodone HCl/Oxy or vehicle (water) PO once daily for 5 days (chronic). Additional groups were dosed only once on day 5 (acute). […] One hour after charcoal, all rats were euthanized by CO2 and the GI tract was removed from the stomach to the cecum. The length of the small intestine and the distance (cm) to the leading edge of charcoal was recorded. Data were analyzed using a one-way ANOVA with Bonferonni's Multiple Comparison Test where * P<0.05, ****P<0.0001 vs. vehicle (chronic), ###vs. oxycodone (acute). Data are represented as the means+S.E.M.
# [2] = tested on: acute thermal pain in the rat; experiment: Rat tail flick assay (response latency, % MPE)
# Experimental: Morphine sulphate (1-10 mg/kg) was dissolved in 0.9% normal saline solution (NSS)(vehicle) and administered SC 1 hour prior to testing against vehicle. Data were analyzed by a two-way ANOVA using a Bonferroni post-hoc test, *P<0.05, ***P<0.001.
# Morphine sulphate (1-10 mg/kg) was dissolved in 0.9% normal saline solution (NSS)(vehicle) and administered SC 1 hour prior to testing against vehicle. % MPE=Percent of Maximum Possible Effect. % MPE=(test latency-baseline)/(cutoff(20 s)-baseline)*100. Data were analyzed by a two-way ANOVA using a Bonferroni post-hoc test, *P<0.05, **P<0.01, ***P<0.001.
# Morphine sulphate (10 mg/kg) was dissolved in 0.9% NSS (vehicle). The formulations were administered SC 1 hour prior to testing against vehicle. Data were analyzed by a two-way ANOVA using a Bonferroni multiple comparisons test, *P<0.05, ***P<0.001.
# Morphine sulphate (10 mg/kg) was dissolved in 0.9% NSS (vehicle). The formulations were administered SC 1 hour prior to testing against vehicle. % MPE=Percent Maximum Possible Effect. % MPE=(test latency-baseline)/(cutoff(20 s)-baseline)*100. Data were analyzed by a two-way ANOVA using a Bonferroni multiple comparisons test, ***P<0.001.
# The positive control, morphine sulfate in 0.9% NS was administered SC 1 hour prior to testing. Rats were assessed the day prior (BL) and then 1, 3 and 5 hours post-dosing. Tail Flick was set to 40 intensity and cutoff 20 seconds. Data were analyzed by a two-way ANOVA using a Bonferroni Multiple Comparisons Test, where *P<0.05,***P<0.001 and ****P<0.0001. Data are represented as the means+S.E.M of two combined studies.
# Oxycodone hydrochloride (0.3-5 mg/kg) was dissolved in 0.9% normal saline solution (NSS)(vehicle) and administered SC 1 hour prior to testing against vehicle. Data were analyzed by a two-way ANOVA using a Bonferroni multiple comparisons test, ****P<0.001.
# Oxycodone hydrochloride (0.3-5 mg/kg) was dissolved in 0.9% normal saline solution (NSS)(vehicle) and administered SC 1 hour prior to testing against vehicle. % MPE=Percent Maximum Possible Effect. % MPE=(test latency-baseline)/(cutoff(20 s)-baseline)*100. Data were analyzed by a two-way ANOVA using a Bonferroni multiple comparisons test, ****P<0.001.
# Oxycodone HCl and vehicle were administered SC 1 hour prior to testing. Rats were assessed one day prior (BL) and then 1, 3 and 5 hours post-oxycodone administration. The tail flick was set to an intensity of 40 and the cutoff was 20 seconds. Oxycodone was dissolved in 0.9% (vehicle). […] Data were analyzed by a two-way ANOVA followed by the Bonferroni Multiple Comparisons Test where, *P<0.05 and ****P<0.001.
# Oxycodone HCl was administered PO 1 hour prior to testing, while morphine sulfate, the positive control, was administered SC 1 Hour prior to testing. Behavior was assessed the day prior (BL) to dosing, and then 1, 3, 5 and 24 hours post-compound administration. The tail flick was set to an intensity of 40 and 20 seconds was used as the cutoff. Oxycodone was dissolved in water (vehicle), while morphine was dissolved in 0.9% NS. Data were analyzed by a two-way ANOVA using a Bonferroni Multiple Comparisons Test, where *P<0.05, **P<0.01, ***P<0.001 and ****P<0.0001.
# Rats were assessed for tail flick latency the day prior to dosing, then 1.5, 3 and 5 hours post-morphine administration. Data were analyzed by a two-way ANOVA using the Bonferroni Multiple Comparisons Test, where ****P<0.0001 compared to vehicle+vehicle. Data are represented as the means+S.E.M.
# Rats were assessed for thermal latency 1.5, 3 and 5 hours post-morphine administration. % MPE=Percent Maximum Possible Effect. % MPE=(test latency-baseline)/(cutoff(20 s)-baseline)*100. Data were analyzed by a two-way ANOVA using a Bonferroni multiple comparisons test for post-hoc analysis where *P<0.05 and ****P<0.001. Data are represented as the means+SEM.
# Rats were tested 1 hour after oxycodone injection.
Compound,stomach weight (gastric emptying) (rat gastric emptying),"hot plate latency to nocifensive response ([1]; morphine sulphate 1-10 mg/kg SC 1 h prior to testing, FIG. 2A)","hot plate % of the maximal possible effect (% MPE) ([1]; morphine sulphate 1-10 mg/kg SC 1 h prior to testing, FIG. 2B)","GI transit: % of the small intestine travelled by a charcoal meal (rat GI transit; morphine sulfate 1-10 mg/kg SC 0.5 h before charcoal meal, FIG. 1A)","tail flick latency to nocifensive response ([2]; morphine sulphate 1-10 mg/kg SC 1 h prior to testing, FIG. 3A)","tail flick % of the maximal possible effect (% MPE) ([2]; morphine sulphate 1-10 mg/kg SC 1 h prior to testing, FIG. 3B)","rats found dead ([1]; oxycodone HCl 10 mg/kg SC, at the 3 hr time point)","hot plate MED (mitigates acute pain) ([1]; oxycodone HCl PO, FIG. 8D) [mg/kg]","hot plate MED (mitigates acute pain) ([1]; oxycodone HCl SC, FIG. 8C) [mg/kg]","hot plate latency to nocifensive response ([1]; oxycodone hydrochloride 0.3-5 mg/kg SC 1 h prior to testing, FIG. 8A)","hot plate % of the maximal possible effect (% MPE) ([1]; oxycodone hydrochloride 0.3-5 mg/kg SC 1 h prior to testing, FIG. 8B)","tolerance to inhibition of GI transit (rat GI transit; oxycodone HCl PO once daily for 5 days (chronic) vs single dose on day 5 (acute), FIG. 7D)","GI transit: % of the small intestine travelled by a charcoal meal (rat GI transit; oxycodone hydrochloride 0.3-5 mg/kg SC 1 h before charcoal meal, FIG. 7A)","rats found dead ([2]; oxycodone HCl 10 mg/kg SC dosing group, at the 3 hr time point)","tail flick MED (mitigates acute pain) ([2]; oxycodone HCl PO, FIG. 9D) [mg/kg]","tail flick MED (mitigates acute pain) ([2]; oxycodone HCl SC, FIG. 9C) [mg/kg]","tail flick latency to nocifensive response ([2]; oxycodone hydrochloride 0.3-5 mg/kg SC 1 h prior to testing, FIG. 9A)","tail flick % of the maximal possible effect (% MPE) ([2]; oxycodone hydrochloride 0.3-5 mg/kg SC 1 h prior to testing, FIG. 9B)"
"CN1CC[C@]23c4c5ccc(O)c4O[C@H]2[C@@H](O)C=C[C@H]3[C@H]1C5.O=S(=O)(O)O [morphine, morphine sulphate]",increased stomach weight due to delayed gastric emptying,provides analgesia,provides analgesia,decreases gastrointestinal transit,provides analgesia,provides analgesia,,,,,,,,,,,,
"COc1ccc2c3c1O[C@H]1C(=O)CC[C@@]4(O)[C@@H](C2)N(C)CC[C@]314.Cl [oxycodone, oxycodone hydrochloride]",,,,,,,4 out of 10,10,3,provides analgesia,provides analgesia,produces some tolerances to its acute effect on the inhibition of GI transit,decreases gastrointestinal transit,4 out of 10,10,3,provides analgesia,provides analgesia

# Source: US12582647B2, “Systems and methods for treating an opioid-induced adverse pharmacodynamic response” (Purdue Pharma L.P., priority 2012, dated 2026)
